# pEC50, pIC50: −log10 of the molar value.
# Key:
# [1] = Inhibition of recombinant Plasmodium falciparum FLN expressed in Escherichia coli BL21 using Dabcyl-HKRHSFRMRG-EDANS as substrate incubated for 10 mins by fluorecence assay
# Plasmodium falciparum = test: Antiplasmodial activity against Plasmodium falciparum 3D7 infected in human red blood cells assessed as reduction in parasitemia measured after 70 to 80 hrs by SYBR Green dye based assay; assay type: functional, organism-based, RBC; conditions: 3D7, Erythrocyte
pIC50 [1],pEC50 (Plasmodium falciparum),Structure (SMILES)
< 4.60,5.29,O=C1/C(=c2/c3ccccc3n3c(=O)c4ccccc4nc23)Nc2ccccc21
< 4.60,< 4.60,O=c1cc(CN2CCc3n[nH]c(-c4cccc5ccccc45)c3C2)[nH]c(=O)[nH]1
< 4.60,< 4.60,Cc1ccc(-c2nc3cccnc3n2CCNC(=O)Nc2ccccc2F)cc1
< 4.60,< 4.60,O=C(c1cc(-c2cccc3cccnc23)cc(-n2cnnn2)c1)N1CCCCC1
4.96,< 4.60,CC(=O)n1cc([C@H]2CC(=O)OC3=C2C(=O)c2ccccc23)c2ccccc21
4.72,4.92,O=C(Nc1ccc(Cl)cc1)Nc1nnc2nc(CC(=O)c3ccc4ccccc4c3)c(=O)[nH]n12
< 4.60,< 4.60,O=c1/c(=C/c2ccc(/C=c3\sc4nc5ccccc5n4c3=O)cc2)sc2nc3ccccc3n12
< 4.60,< 4.60,O=C1Oc2ccccc2C(=O)Oc2ccccc2C(=O)Oc2ccccc2C(=O)Oc2ccccc21
< 4.60,5.42,Cn1nc(C(=O)NCc2ccccc2)c2c1CCN(Cc1cc3ccccc3[nH]1)C2
< 4.60,< 4.60,Cc1nc2ccccc2c(=O)n1Cc1noc(-c2cc3ccccc3oc2=O)n1
< 4.60,< 4.60,Cc1ccc(-c2noc(CSc3nc(O)cc(-c4ccccc4)n3)n2)cc1C
4.68,5.36,c1cnc2c(c1)CN(c1nc(-c3c[nH]c4ccccc34)nc3c1CNC3)CC2

# Further lines, the compound ahead of its results:
Structure (SMILES),pIC50 [1],pEC50 (Plasmodium falciparum)
Cc1cccc(-c2nc3c4ccccc4nc(NCCc4ccccc4)n3n2)c1,< 4.60,5.28
O=C(Nc1nc2ccccc2[nH]1)c1cc(-c2ccccn2)nc2ccccc12,< 4.60,4.83
Cc1cccc(NC(=O)Cn2c(C)cc(=O)n3nc(-c4cccc(C)c4)nc23)c1,< 4.60,< 4.60
O=C1c2ccc3c(c2CC12Cc1ccc4c(c1C2=O)CCCC4)CCCC3 (stereo not given),< 4.60,< 4.60
C[C@H]1CCc2[nH]c3ccc(C(=O)NC[C@H]4COc5ccccc5O4)cc3c2C1,< 4.60,5.04
Cc1nn(-c2cccc(C(=O)N3CCN(C)C(=O)C3)c2)c(=O)c2ccccc12,< 4.60,< 4.60
O=C(c1ccc2c3c(cccc13)CC2)[C@H]1CCCN(Cc2cc(=O)[nH]c(=O)[nH]2)C1,< 4.60,< 4.60
Cc1cc2cc(CCNC(=O)c3ccc4ccccc4c3)c(=O)[nH]c2cc1C,< 4.60,5.26
O=C(NN1C(=O)c2cccc3cccc(c23)C1=O)NN1C(=O)c2cccc3cccc(c23)C1=O,< 4.60,< 4.60
C[C@@H](c1cc(=O)[nH]c(N[C@H]2CCc3ccccc32)n1)n1ncc2ccccc2c1=O,< 4.60,< 4.60
Cc1ccc(N2C[C@@H](c3nc(-c4ccc5oc(C)nc5c4)no3)CC2=O)cc1,< 4.60,< 4.60
O=C(Cn1cc(-c2nnc(-c3ccccc3)o2)c2ccccc21)Nc1ccccc1,4.92,< 4.60
O=C1NC(=O)C(c2ccccc2)(c2ccccc2)[C@@H]2C[C@@H]3c4[nH]c5ccccc5c4CCN3C[C@H]12,4.92,5.77
CN1CCC2(CC1)Oc1ccccc1[C@H]1CC(c3cccc4ccccc34)=NN12,< 4.60,5.42
Nc1c(C(=O)Nc2ccc3c(c2)C(=O)c2ccccc2C3=O)ccc2c1C(=O)c1ccccc1C2=O,5.75,< 4.60
C[C@@H]1Cc2cc(-c3cc(CC(=O)N=c4[nH]c5ccccc5[nH]4)no3)ccc2O1,< 4.60,< 4.60
CC1=C(C(=O)Nc2ccccc2C)[C@H](c2ccc3c(c2)OCO3)n2ncnc2N1,< 4.60,< 4.60
Cc1c(C(=O)NCCc2nc3ccccc3[nH]2)oc2c1ccc1ccccc12,< 4.60,5.52
